# From PubChem BioAssay (NCI)
#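 Each compound was tested at five concentrations against cells in 96-well plates for 48 hours. Definition used: TGI = concentration required for complete inhibition of growth.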
# Tests used:
# Assay in all cases: NCI tumour cell line growth inhibition, 48 h
# SN12C renal = test system: SN12C renal
# OVCAR-8 ovarian = test system: OVCAR-8 ovarian
# UACC-257 melanoma = test system: UACC-257 melanoma
# HCT-15 colon = test system: HCT-15 colon
# HCT-116 colon = test system: HCT-116 colon
# DU-145 prostate = test system: DU-145 prostate
# MDA-MB-435 = test system: MDA-MB-435
# RXF 393 renal = test system: RXF 393 renal
# OVCAR-4 ovarian = test system: OVCAR-4 ovarian
# PC-3 prostate = test system: PC-3 prostate
# KM12 colon = test system: KM12 colon
# HOP-92 NSCLC = test system: HOP-92 NSCLC
# NCI-H23 lung = test system: NCI-H23 lung
# U251 CNS = test system: U251 CNS
# HL-60(TB) leukemia = test system: HL-60(TB) leukemia
# SF-295 CNS = test system: SF-295 CNS
# SF-268 CNS = test system: SF-268 CNS
# SNB-75 CNS = test system: SNB-75 CNS
# SK-MEL-5 melanoma = test system: SK-MEL-5 melanoma
# HCC-2998 colon = test system: HCC-2998 colon
Compound,TGI (SN12C renal) [µM],TGI (OVCAR-8 ovarian) [µM],TGI (UACC-257 melanoma) [µM],TGI (HCT-15 colon) [µM],TGI (HCT-116 colon) [µM],TGI (DU-145 prostate) [µM],TGI (MDA-MB-435) [µM],TGI (RXF 393 renal) [µM],TGI (OVCAR-4 ovarian) [µM],TGI (PC-3 prostate) [µM],TGI (KM12 colon) [µM],TGI (HOP-92 NSCLC) [µM],TGI (NCI-H23 lung) [µM],TGI (U251 CNS) [µM],TGI (HL-60(TB) leukemia) [µM],TGI (SF-295 CNS) [µM],TGI (SF-268 CNS) [µM],TGI (SNB-75 CNS) [µM],TGI (SK-MEL-5 melanoma) [µM],TGI (HCC-2998 colon) [µM]
CC(C)N(c1cc2c(cc1F)c(=O)c(C(=O)O)cn2-c1ccc(N2CCN(C)CC2)cn1)C(C)C,> 100,> 100,> 100,> 100,> 100,> 100,> 100,> 100,> 100,> 100,> 100,> 100,> 100,> 100,> 100,> 100,> 100,> 100,,
O=C1NC(Cc2c[nH]c3ccccc23)C(=O)N2C(c3ccccc3)c3[nH]c4ccccc4c3C[C@@H]12 (some centres not stated),33.3,82.7,51.6,54.3,30.6,> 100,39.7,34.3,> 100,53.8,40,53.7,57.1,39.2,50.8,33.1,95.7,,32.7,
COc1ccc(CCN(C)C(=O)CC(C#N)(c2ccccc2)c2ccc(OC)c(OC)c2)cc1OC (configuration not stated),> 100,> 100,> 100,> 100,> 100,> 100,> 100,> 100,> 100,> 100,> 100,> 76,> 100,> 100,> 100,> 100,> 100,> 100,> 100,
C=C1CC(COc2ccc3ccc(=O)oc3c2)(c2ccccc2)OC1=O (configuration not stated),8.23,7.9,4.05,4.13,2,7.21,7.82,,3.22,7.58,13.5,2.15,3.5,22.2,0.708,20.7,11.9,12.2,2.85,2.48
NC(=O)NC(=O)c1ccc(NC(=O)CBr)cc1,1.18,8.38,5.29,4.56,2.29,6.92,3.06,3.32,,4.39,10.1,4.59,4.59,2.25,3.27,27.3,3.09,4.19,3.23,25.5
CC1(C)OC(=O)CC12CCN(Cc1ccccc1)CC2,> 100,> 100,> 100,> 100,> 100,> 100,> 100,> 100,> 100,> 100,,> 100,> 100,> 100,> 100,> 100,> 100,> 100,> 100,
COC(=O)c1c(C(=O)OC)c(C(c2ccccc2)c2ccccc2)n(-c2ccccc2)c1Cl,> 10,> 10,> 10,> 10,> 10,> 10,> 10,> 10,> 10,> 10,> 10,> 10,> 10,> 10,> 10,> 10,> 10,,> 10,> 10
NC(=S)N/N=C(/C(=O)Nc1nc2ccc([N+](=O)[O-])cc2s1)C1C(=O)NC(=S)NC1=O,> 100,> 100,> 100,> 100,> 100,> 100,> 100,> 100,> 100,> 100,> 100,> 100,> 100,> 100,> 100,> 100,> 100,,,> 100
C[C@@H]1OC2(O)[C@@H]3CCCN3C(=O)N(Cc3ccccc3)N2C1=O (some centres not stated),> 100,> 100,> 100,> 100,> 100,> 100,> 100,> 100,> 100,> 100,> 100,> 100,> 100,,> 100,> 100,> 100,88.7,> 100,> 100
O=C(/C=C/c1ccccc1)CCC1C(=O)NC(=O)NC1=O,> 100,> 100,> 100,> 100,> 100,> 100,> 100,,> 100,> 100,> 100,> 100,> 100,> 100,> 100,> 100,> 100,> 100,> 100,> 100
Cc1ccnc2c1ccc1nc3ccccc3n12,> 100,92.4,> 100,,> 100,> 100,> 100,> 100,> 100,> 100,> 100,> 100,> 100,,> 100,> 100,99.6,> 100,93.1,> 100
CCCCc1ccc(N2C(=O)c3cccnc3S2(=O)=O)cc1,> 100,> 100,> 100,> 100,> 100,> 100,> 100,> 100,> 100,> 100,> 100,> 100,> 100,> 100,> 100,> 100,> 100,> 100,,> 100
CC1=[N+]([O-])C(C)(C)N(O)C1(C)C,> 100,> 100,,> 100,> 100,> 100,> 100,> 100,> 100,> 100,> 100,> 100,> 100,> 100,> 100,> 100,> 100,> 100,> 100,> 100
